Reference: patent US20060079453A1, “Hla binding peptides and their uses” (priority 2002, published 2006)
pIC50: −log10 of the molar value. Where two headings read alike, the source gives them in different places. No end group written: not given here.

What was measured:
Assay in all cases: biochemical
Assay type in all cases: binding
[1] = molecular target: HLA-B*4501 (Homo sapiens, UniProt P01889, A329T/A65T/A93T/A95T/C349S/D138N/D201E/D98Y/E176V/E187L/E204Q/E69K/H137Y/K202T/L119W/N87E/Q56L/Q94N/R155S/R180D/S121R/S35A/S48T/V127L/V306I/V36M/W191S/Y140L/Y33H/Y91S)
[2] = molecular target: HLA-B*4403 (Homo sapiens, UniProt P01889, A223V/A65T/A93T/A95T/D201E/D98Y/E176V/E187L/E204Q/E69K/G107R/H137Y/K202T/L105A/L119I/N104T/N87E/Q56L/Q94N/R106L/R155S/R180L/S101N/S121R/S35A/S48T/T118I/V36M/W191S/Y140D/Y91S)
[3] = molecular target: HLA-B*1801 (Homo sapiens, UniProt P01889, A329T/A93T/A95T/C349S/D201E/D54G/D98Y/E176V/E187T/E204Q/E69T/K202T/Q94N/R155S/R180L/S121R/V306I/Y140S/Y195H/Y33H/Y91S)
[4] = molecular target: HLA-B*4402 (Homo sapiens, UniProt P01889, A223V/A65T/A93T/A95T/D201E/D98Y/E176V/E187L/E204Q/E69K/G107R/H137Y/K202T/L105A/L119I/N104T/N87E/Q56L/Q94N/R106L/R155S/R180D/S101N/S121R/S35A/S48T/T118I/V36M/W191S/Y140D/Y91S)
[5] = molecular target: HLA-B*4001 (Homo sapiens, UniProt P01889, A65T/A93T/A95T/D138N/D98Y/E176V/E69K/N87E/Q56L/Q94N/R180L/S121R/S35A/S48T/T167S/V36M/W171L/Y33H/Y91S)
[6] = molecular target: HLA-B*4002 (Homo sapiens, UniProt P01889, A65T/A93T/A95T/D138N/D201E/D98Y/E176V/E204Q/E69K/K202T/N87E/Q56L/Q94N/R180L/S48T/Y33H/Y91S)

Row | Compound | pIC50 [2] | pIC50 [3] | pIC50 [4] | pIC50 [5] | pIC50 [6] | also measured
1 | AEGIVTGQY |  |  |  |  |  | pIC50 ([1]; B*4501): 6.38; pIC50 ([2]; B*4403): 7.92; pIC50 ([3]; B*1801): 5.14; pIC50 ([4]; B*4402): 6.59; pIC50 ([5]; B*4001): 5.19
2 | NENLWVTVY | 6.65 | 7.42 | 6.34 | < 4.14 | 4.93 | 
3 | CC[C@H](C)[C@H](NC(=O)[C@@H](NC(=O)[C@H](CS)NC(=O)[C@@H](NC(=O)[C@@H]1CCCN1C(=O)[C@@H]1CCCN1C(=O)[C@H](CCC(N)=O)NC(=O)[C@@H]1CCCN1C(=O)[C@H](CC(C)C)NC(=O)[C@H](CCCNC(=N)N)NC(=O)[C@H](CCC(=O)O)NC(=O)CN)[C@@H](C)CC)[C@@H](C)O)C(=O)O |  |  |  |  |  | pIC50 ([2]; B*4403): 8.60; pIC50 ([6]; B*4002): 8.41
4 | AEFLWVTVY |  | 6.88 | 5.99 | 6.74 | 6.62 | pIC50 [1]: 6.33
5 | AENLWDTVY | 7.17 | 6.11 |  | 5.94 | 5.68 | 
6 | AETFYVDGA |  |  |  |  |  | pIC50 ([1]; B*4501): 7.42; pIC50 ([2]; B*4403): 5.16; pIC50 ([3]; B*1801): < 5.17; pIC50 ([4]; B*4402): < 4.67; pIC50 ([5]; B*4001): 4.66
7 | AEMGKGSFKY |  |  |  |  |  | pIC50 ([1]; B*4501): 6.52; pIC50 ([2]; B*4403): 7.05; pIC50 ([3]; B*1801): 5.79; pIC50 ([5]; B*4001): 5.19; pIC50 ([6]; B*4002): 5.42
8 | GEISPYPSL | 6.53 | 4.71 |  | 7.62 | 8.74 | 
9 | AENLWNTVY | 7.09 | 6.47 | 7.18 | 5.87 | 6.02 | 
10 | AENLWKTVY | 6.42 | 6.04 |  | 6.07 | 6.39 | 
11 | AENLWVTVW | 6.49 | 4.65 |  | 5.88 |  | pIC50 [1]: 6.69
12 | AENLTVTVY | 6.68 |  | 6.49 | 6.16 |  | pIC50 [1]: 6.10
13 | AENLDVTVY | 6.47 |  | 6.17 | 6.66 | 4.92 | 
14 | ATNLWVTVY |  |  |  |  |  | pIC50 ([1]; read-out: B*4501): < 4.31; pIC50 ([2]; read-out: B*4403): < 4.37; pIC50 ([3]; read-out: B*1801): 4.75; pIC50 ([5]; read-out: B*4001): 6.31; pIC50 ([6]; read-out: B*4002): < 3.81
15 | AENLWVFVY | 6.51 |  | 6.46 | 6.07 |  | 
16 | AENLWVDVY | 7.04 | 6.38 | 6.48 | 6.15 | 5.46 | 
17 | AENLWVTNY | 7.13 | 6.14 |  | 6.06 | 6.02 | 
18 | AENLWVTVI | 7.06 | 4.95 |  | 7.85 | 8.14 | pIC50 [1]: 7.27
19 | AENDWVTVY | 6.78 | 6.49 | 7.02 | 6.02 |  | 
20 | AENLWVNVY | 7.12 |  | 6.80 |  |  | pIC50 [1]: 6.58
